Results as given in patent US20180339024A1, “PEPTIDES WITH ANTI-ANGIOGENIC, ANTI-LYMPHANGIOGENIC, AND ANTI-EDEMIC PROPERTIES AND NANOPARTICLE FORMULATIONS” (Asclepix Therapeutics, LLC, priority 2015, published 2018).
Entries after “also recorded” stand apart in the source; their conditions may differ.

Assays:
[1] = molecular target: αVβ3 integrin (Homo sapiens, UniProt P05106+P06756); assay: Target identification of P07 (αVβ3); format: binding
[2] = test system: small cell lung cancer (SCLC) xenografts; assay: Small cell lung cancer xenografts; format: in vivo; conditions: not shown
[3] = test system: vascular endothelial growth factor receptor (VEGFR); assay: P07 inhibition of VEGF receptor signaling in microvascular endothelial cells; format: cell-based; conditions: FIG. 1
Text: (§1) Integrins function as co-receptors for many growth factor receptors such as VEGFR, hepatocyte growth factor receptor (HGFR or c-met), insulin-like growth factor receptor (IGFR), and platelet derived growth factor receptor (PDGFR).

[4] = test system: VEGF induced neovascularization and leakage; assay: Mouse models of retinal and choroidal neovascularization and vascular leakage; format: in vivo
[5] = test system: orthotopic triple-negative breast cancer (TNBC) xenografts; assay: Orthotopic triple-negative breast cancer xenografts; format: in vivo
[6] = test system: insulin-like growth factor receptor (IGFR); assay: P07 inhibition of IGF receptor signaling in microvascular endothelial cells; format: cell-based; conditions: FIG. 1
Text: as §1

[7] = test system: transgenic mouse over-expressing the human form of vascular endothelial growth factor (VEGF) in the retina; assay: Vascular leakage and retinal detachment in transgenic mouse over-expressing human VEGF in the retina; format: in vivo
Text: The vascular leakage in this model is so severe that the blood that pools behind the retina causes retinal detachment.

[8] = test system: hepatocyte growth factor receptor (HGFR or c-met); assay: P07 inhibition of HGF receptor signaling in microvascular endothelial cells; format: cell-based; conditions: FIG. 1
Text: as §1

[9] = molecular target: α5β1 integrin (Homo sapiens, UniProt P05556+P08648); assay: Target identification of P07 (α5β1); format: binding
α5β1 integrin, sequence (P08648 42-894 limits assumed): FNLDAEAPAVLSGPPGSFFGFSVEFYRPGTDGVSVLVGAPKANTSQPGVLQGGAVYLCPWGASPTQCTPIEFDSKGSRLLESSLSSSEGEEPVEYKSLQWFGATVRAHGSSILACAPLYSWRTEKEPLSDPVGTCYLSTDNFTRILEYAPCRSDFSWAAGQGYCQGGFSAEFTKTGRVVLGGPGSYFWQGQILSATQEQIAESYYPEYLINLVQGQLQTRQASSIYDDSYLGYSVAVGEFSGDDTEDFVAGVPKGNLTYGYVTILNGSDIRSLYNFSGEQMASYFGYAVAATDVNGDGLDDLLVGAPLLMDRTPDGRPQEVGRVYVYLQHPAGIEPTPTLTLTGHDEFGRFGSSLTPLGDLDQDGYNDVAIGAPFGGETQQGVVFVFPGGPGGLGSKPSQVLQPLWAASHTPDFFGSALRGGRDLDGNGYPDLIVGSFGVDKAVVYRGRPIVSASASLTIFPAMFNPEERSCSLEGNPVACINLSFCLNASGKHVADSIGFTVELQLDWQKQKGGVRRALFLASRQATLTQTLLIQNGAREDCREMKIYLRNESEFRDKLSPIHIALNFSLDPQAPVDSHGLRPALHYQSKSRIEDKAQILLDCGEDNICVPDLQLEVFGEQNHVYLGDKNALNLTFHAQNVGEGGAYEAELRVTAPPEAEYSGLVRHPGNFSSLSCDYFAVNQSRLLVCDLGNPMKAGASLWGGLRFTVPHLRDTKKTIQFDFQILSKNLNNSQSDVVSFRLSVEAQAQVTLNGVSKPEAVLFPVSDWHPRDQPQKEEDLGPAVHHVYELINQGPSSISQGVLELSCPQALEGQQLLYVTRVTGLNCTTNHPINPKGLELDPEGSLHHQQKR
α5β1 integrin, sequence (P08648 895-1049 partner limits assumed): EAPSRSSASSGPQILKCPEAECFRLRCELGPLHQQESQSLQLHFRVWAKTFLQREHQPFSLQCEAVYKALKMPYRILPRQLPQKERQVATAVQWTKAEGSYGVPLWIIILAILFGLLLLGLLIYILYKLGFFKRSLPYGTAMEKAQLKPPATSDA
α5β1 integrin, sequence (P05556 21-798): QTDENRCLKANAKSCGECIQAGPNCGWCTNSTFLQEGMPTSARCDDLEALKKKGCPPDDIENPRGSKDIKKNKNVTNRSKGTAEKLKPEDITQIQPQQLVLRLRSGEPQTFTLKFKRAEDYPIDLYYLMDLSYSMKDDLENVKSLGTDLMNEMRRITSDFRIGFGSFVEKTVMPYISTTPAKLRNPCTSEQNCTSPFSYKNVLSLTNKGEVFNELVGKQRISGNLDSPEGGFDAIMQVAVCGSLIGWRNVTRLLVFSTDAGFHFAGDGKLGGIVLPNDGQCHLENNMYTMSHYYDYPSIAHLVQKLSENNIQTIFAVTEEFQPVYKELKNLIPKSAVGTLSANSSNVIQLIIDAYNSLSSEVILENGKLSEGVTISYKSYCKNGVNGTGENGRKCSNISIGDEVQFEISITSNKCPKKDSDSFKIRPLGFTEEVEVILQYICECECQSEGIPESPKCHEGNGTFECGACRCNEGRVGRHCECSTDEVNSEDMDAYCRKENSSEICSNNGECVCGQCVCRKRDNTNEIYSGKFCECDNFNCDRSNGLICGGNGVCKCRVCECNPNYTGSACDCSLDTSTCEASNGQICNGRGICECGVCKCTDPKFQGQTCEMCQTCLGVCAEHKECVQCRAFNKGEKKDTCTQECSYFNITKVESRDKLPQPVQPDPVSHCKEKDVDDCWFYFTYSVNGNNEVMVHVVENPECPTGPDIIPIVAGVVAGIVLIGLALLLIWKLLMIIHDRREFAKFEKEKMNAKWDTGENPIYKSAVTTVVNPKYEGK

[10] = test system: rabbit eye, human VEGF induced leakage; assay: VEGF induced vascular leakage (edema) model in the rabbit eye; format: in vivo; conditions: about 50 μg P07 in the eye prior to VEGF injection, fluorescein i.v. 3 days after VEGF, FIG. 3
Procedure: P07 was also tested in a model of edema in the rabbit eye. In this model human VEGF was injected directly into the eye causing the local vasculature to be leaky. The extent of this leak was assessed by measuring the amount of fluorescence in the eye resulting from the leakage of sodium fluorescein administered intravenously 3 days after VEGF injection.

[11] = test system: platelet derived growth factor receptor (PDGFR); assay: P07 inhibition of PDGF receptor signaling; format: cell-based
Text: as §1

[12] = test system: glioblastoma xenografts; assay: Glioblastoma xenografts; format: in vivo; conditions: not shown
[13] = Size characterization, Malvern Zetasizer Nano ZS90; format: physicochemical; conditions: 1 mg/ml in water
Procedure: N07 was suspended in water at 1 mg/ml and analyzed using a Malvern Zetasizer Nano ZS90. Z-average diameter and intensity-based size distribution were measured and recorded.

αVβ3 integrin, sequence (P06756 31-889 limits assumed): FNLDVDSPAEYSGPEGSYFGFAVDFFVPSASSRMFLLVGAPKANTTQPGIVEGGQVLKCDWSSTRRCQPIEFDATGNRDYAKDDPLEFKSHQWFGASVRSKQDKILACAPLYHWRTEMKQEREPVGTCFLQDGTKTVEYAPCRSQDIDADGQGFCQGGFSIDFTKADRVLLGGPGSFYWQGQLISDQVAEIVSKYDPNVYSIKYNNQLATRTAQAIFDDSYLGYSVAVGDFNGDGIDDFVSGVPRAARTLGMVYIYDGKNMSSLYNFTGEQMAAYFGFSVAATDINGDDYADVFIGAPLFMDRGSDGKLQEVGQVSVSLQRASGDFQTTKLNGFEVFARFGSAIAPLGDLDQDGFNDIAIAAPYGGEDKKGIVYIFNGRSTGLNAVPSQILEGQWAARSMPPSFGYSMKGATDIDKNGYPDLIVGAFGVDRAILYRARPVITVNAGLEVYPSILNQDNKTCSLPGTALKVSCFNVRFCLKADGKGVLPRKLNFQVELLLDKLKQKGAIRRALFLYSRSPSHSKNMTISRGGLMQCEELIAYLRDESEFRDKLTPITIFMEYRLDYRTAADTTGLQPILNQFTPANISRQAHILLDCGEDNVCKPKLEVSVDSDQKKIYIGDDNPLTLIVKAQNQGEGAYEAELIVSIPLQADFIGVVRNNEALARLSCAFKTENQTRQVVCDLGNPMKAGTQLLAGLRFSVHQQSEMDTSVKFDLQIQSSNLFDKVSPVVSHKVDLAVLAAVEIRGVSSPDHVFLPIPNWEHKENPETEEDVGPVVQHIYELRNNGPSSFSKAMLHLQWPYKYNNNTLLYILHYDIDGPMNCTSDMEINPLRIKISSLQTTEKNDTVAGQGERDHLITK
αVβ3 integrin, sequence (P06756 891-1048 partner limits assumed): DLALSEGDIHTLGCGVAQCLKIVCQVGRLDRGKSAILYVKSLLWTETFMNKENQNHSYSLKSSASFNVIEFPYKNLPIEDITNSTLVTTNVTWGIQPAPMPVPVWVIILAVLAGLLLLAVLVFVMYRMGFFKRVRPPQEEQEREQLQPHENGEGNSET
αVβ3 integrin, sequence (P05106 27-788): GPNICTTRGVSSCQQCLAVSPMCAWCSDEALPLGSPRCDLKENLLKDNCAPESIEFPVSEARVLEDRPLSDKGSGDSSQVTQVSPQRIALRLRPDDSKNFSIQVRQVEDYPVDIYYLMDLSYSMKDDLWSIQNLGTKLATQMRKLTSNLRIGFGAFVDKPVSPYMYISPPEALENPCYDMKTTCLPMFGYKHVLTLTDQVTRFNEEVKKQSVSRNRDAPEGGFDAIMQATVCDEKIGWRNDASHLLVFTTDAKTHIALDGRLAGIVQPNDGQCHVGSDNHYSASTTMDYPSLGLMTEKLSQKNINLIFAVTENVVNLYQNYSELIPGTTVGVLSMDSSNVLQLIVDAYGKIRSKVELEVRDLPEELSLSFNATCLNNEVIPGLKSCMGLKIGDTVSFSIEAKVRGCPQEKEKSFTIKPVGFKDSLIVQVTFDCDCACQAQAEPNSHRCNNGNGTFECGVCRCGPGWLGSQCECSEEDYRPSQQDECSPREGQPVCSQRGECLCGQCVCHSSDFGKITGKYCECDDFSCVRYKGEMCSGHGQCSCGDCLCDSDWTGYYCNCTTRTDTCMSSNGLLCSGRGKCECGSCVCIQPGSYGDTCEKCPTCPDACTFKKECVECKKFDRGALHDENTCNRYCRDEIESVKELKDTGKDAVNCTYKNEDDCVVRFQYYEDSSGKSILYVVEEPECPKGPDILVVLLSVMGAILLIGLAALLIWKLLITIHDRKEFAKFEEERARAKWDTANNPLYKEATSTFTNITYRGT

Substance	identified target: αVβ3 integrin [1]	growth of SCLC xenografts [2]	inhibition of signaling from VEGFR [3]	VEGF induced neovascularization and leakage [4]	growth of orthotopic TNBC xenografts ([5]; FIG. 4)	tumor vasculature / neovascularization in orthotopic TNBC xenografts ([5]; FIG. 5)	inhibition of signaling from IGFR [6]	vascular leakage [7]	retinal detachment ([7]; FIG. 2)	inhibition of signaling from HGFR (c-met) [8]	identified target: α5β1 integrin [9]	vascular leakage (sodium fluorescein fluorescence in the eye) [10]	inhibition of signaling from PDGFR [11]	growth of glioblastoma xenografts [12]	PDI [13]	Z-Average [13] [nm·days]
LRRFSTAPFAFIDINDVINF [P07]	identified to be the α5β1 and αVβ3 integrins	inhibits the growth	inhibit signaling	strongly inhibits	inhibits the growth; also recorded: dose dependent manner	dramatically diminished vasculature; also recorded: inhibits neovascularization	inhibit signaling	inhibit vascular leakage	almost completely blocked retinal detachment	inhibit signaling	identified to be the α5β1 and αVβ3 integrins	dramatically inhibited	inhibit signaling	inhibits the growth	–	–
PLGA-PEG-P07: nanoparticles made completely of PLGA-PEG-P07 conjugated polymer (LRRFSTAPFAFIDINDVINF)	–	–	–	–	–	–	–	–	–	–	–	–	–	–	0.29	77.59 ± 2.65
